Results published in patent US20020169264A1, “Polymers incorporating peptides” (The Council of the Queensland Institute of Medical Research, priority 1997, published 2002).
Like-named read-outs stand apart in the source and are kept apart here. Where no end group is shown, it is not given here. The star is where a group is joined. Acryloyl = C=CC(=O)*; Ahx = NCCCCCC(=O)O

Tests used:
[1] = system: virus infected P815 mastocytoma cells; format: in vivo, BALB/c mice
[2] = system: Balb/c mice; assay: Immunogenicity in Balb/c mice, antibody titre by ELISA; format: in vivo; settings: for antibody response (levels of antibody elicited): 0.5 nmole dose, FIG. 11B
Excerpt: (§1) Female Balb/c mice, 6 to 8 weeks of age, were used. For antibody studies, animals were inoculated i.p. with synthetic peptide in monomeric or polymeric form and emulsified in complete Freund's adjuvant (CFA). Mice received 5 or 0.5 nmoles of monomeric peptide or the equivalent number of moles of determinant within a polymer. For T-cell studies, mice were inoculated s.c. in the hind footpads with a total of 10 nmoles of T-cell determinant in CFA.
Enzyme-linked immunosorbent assays (ELISAs) were performed as described^23 using microtitre plates coated with a solution of 5μg/ml peptide or polymer antigen. Bound antibody was detected by incubation with horseradish peroxidase-conjugated rabbit immunoglobulin (Ig) directed against mouse Ig (DAKO, Denmark) for 1.5h followed, after washing, with substrate (0.2mM 2,2′-azino-bis 3-ethylbenzthiazoline-sulphonic acid in 50mM citric acid pH4.0 containing 0.004% v/v hydrogen peroxide). The absorbance at a wavelength of 405nm was determined using a Labsystems Multiscan Multisoft microplate reader (Pathtech Diagnostics Pty. Ltd., Aust.) and antibody titres were expressed as the reciprocal of the antibody dilution giving an absorbance of 0.25, which corresponds to at least five times the background value.

[3] = system: MAb 2/1; assay: ELISA, MAb 2/1 binding to coated peptide or polymer; design: species or system mouse
[4] = system: lymph node T cells; assay: T cell proliferation assay, peptide monomer-primed lymph node T cells; format: cell-based, mice; settings: FIG. 10
Excerpt: Lymph node T cells were derived from pooled inguinal and popliteal lymph node cell suspensions of mice primed seven days previously with peptide. T cells were enriched by passage through nylon wool columns^24.
as §1
T cells were cultured (at a concentration of 3×10^5 cells/well for lymph node T cells and 1×10^4/well for the T-cell clone) in 96-well nmicrotitre trays (Nunc, Denmark) in the presence of syngenic γ-irradiated (2,200 R, ^60Co source) spleen cells as a source of antigen presenting cells, together with antigen in a total volume of 250μl^22, 23, The culture medium was RPMI 1640 supplemented with 10% heat inactivated (56° C., 30min) fetal calf serum, 2mM glutamine, 2mM sodium pyruvate, 0.1mM 2-mercaptoethanol, 30μg/ml gentamicin, 100 I.U./ml penicillin and 100μg/ml streptomycin. […] Cells were then harvested onto glass fibre filters and incorporation of ^3H-thymidine was measured on a Hewlett Packard Matrix 9600 direct β-counter.

[5] = system: MAb 1/1; assay: ELISA, MAb 1/1 binding to coated peptide or polymer; design: species or system mouse; settings: persulphate to peptide ratios 0.1:1 to 1,000:1, in the presence of acrylamide; FIG. 8

## TYQRTRALV [P7]
[1]; mouse, in vivo, sc
  CTL response (priming): did

## TLKLATG [P1]
[2]
  antibody response (levels of antibody elicited): no antibody
[3]; FIG. 9
  binding of MAb 2/1 to coated polymers: slightly reduced ability to interact with MAb

## ALNNRFQIKGVELKS [P3]
[4]
  recognition by polyclonal lymph node T cells raised against monomeric T-cell determinant peptide: equal efficiency

## GMRNVPERKQT [P2]
[2]
  antibody response (levels of antibody elicited): no antibody

## PKYVKQNTLKLATGMRNVPEKQT [P5]
[2]; 5 nmoles of peptide epitope, i.p. in CFA
  primary antibody response: very weak
[2]; 5 nmoles of peptide epitope, secondary vs primary
  rise of antibody response following the second inoculation: ~10 fold
[5]
  antigenic activity (MAb 1/1 binding) after exposure to ammonium persulphate: little or no effect on antigenic activity
[3]; persulphate to peptide ratios 0.1:1 to 1,000:1, in the presence of acrylamide, FIG. 8
  antigenic activity (MAb 2/1 binding) after exposure to ammonium persulphate: little or no effect on antigenic activity

## acryloyl-Ahx-CTL: acryloyl-Ahx derivative of the CTL epitope TYQRTRALV, not polymerised ({Acryloyl-Ahx}-TYQRTRALV)
[1]; 10 μg peptide s.c. in CFA, virus infected targets, FIG. 15
  CTL response (priming): did not induce a CTL response
